From patent US8669232B2, “Flavonol compounds, a bioactive extract/fraction from Ulmus wallichiana and its compounds for prevention for treatment of osteo-health related disorders” (Council of Scientific & Industrial Research, priority 2008, dated 2014)

Key:
[1] = tested on: calvarial osteoblasts; experiment: Semi-quantitative RT-PCR of osteogenic genes; format: cell-based, neonatal Sprague-Dawley rats; details: 10^−7 M
Method: Neonatal rat calvarial cell cultures are prepared as described previously (Chattopadhyay et al., Endocrinology 145:3451-62, 2004) using slight modification. Briefly, for calvarial osteoblast cultures, frontal and parietal bones from neonatal Sprague-Dawley rats (1-3 day old) were digested in 0.1% collagenase/0.1% dispase in α-MEM to obtain 5 sequential digests. The second through fifth digests are combined and grown to confluence at 37° C. and 5% CO2 in air in α-MEM, supplemented with 10% fetal bovine serum (FBS), 2 mM glutamine, 100 U/ml penicillin-streptomycin, non-essential amino acid solution and sodium pyruvate.
RT-PCR was performed for assessing mRNA levels of Col1 (collagen type I), Cbfa-1 (Core binding factor-1), ALP (Alkaline phosphatase), OPN (osteopontin), BMP 2 (Bone morphogenic protein 2), OPG (Osteoprotegrin), and OCN (Osteocalcin). The house-keeping gene GAPDH (Glyceraldehyde-3-phosphate dehydrogenase) was used as the internal control in this study. RNAs were extracted at 0-, 4-, 8-, 12-, 24-, and 48 h. Total RNA was extracted using TRIzol reagent (Invitrogen). A single step RT PCR kit (Qaigen) was used to perform RT-PCR according to the manufacturer's instructions. Following gene specific primer pairs were used (Table 2).

[2] = tested on: BMCs (Bone Marrow Cells) from growing female rats; experiment: Ex-vivo bone marrow cultures from treated immature rats (ALP, mineralization); format: in vivo, Sprague Dawley rats; details: BMCs from growing rats treated with 5.0 mg/kg body weight for 30 days; vs controls
Source text: Right femur of control and C002 treated rats were collected aseptically in PBS during autopsy from the rats. Soft tissue was removed, and the ends of the femur was clipped off using sterile scissors, a hole was created in the knee joint end of each bone with a needle, and the marrow was flushed out from the shaft with control medium (CM) which consisted of α-MEM supplemented with 10% fetal calf serum, 100 U/ml penicillin, 100 U/ml streptomycin (Sigma, Chemical Co., St. Louis, Mo., USA). The cells were suspended in this medium, and the suspensions were spun down at 800 rpm for 5 min. Cells were resuspended in fresh CM and counted using a haemocytometer. […] ALP activity was determined as described by Akiyama et al. with modifications. Briefly, cells were washed once with PBS, then, ALP activity was measured by adding ALP buffer (1 M diethanolamine, 0.5 mM MgCl2, 1 mg/ml PNPP, pH 9.0), incubating in 37° C., and absorbance (405 nm) was read using a microplate spectrophotometer. Statistical significance was determined by paired two-tailed Student's t-tests. […]
Right femur of control and K058 treated rats were collected aseptically in PBS during autopsy from the rats. […] Cells were resuspended in fresh CM and counted using a haemocytometer. […] ALP activity was determined as described by Akiyama et al. with modifications. […] Statistical significance was determined by paired two-tailed Student's t-tests.

[3] = tested on: growing female Sprague Dawley rats; experiment: Attainment of peak bone mass: BMD by DEXA in growing rats; format: in vivo; details: 21 days old female rats, 5 mg/kg body weight oral daily, 30 days; vs vehicle
Method: 21 days old female Sprague Dawley rats were divided into three groups, each group consisted of 10 rats; control (vehicle treated), 750 mg/kg C002 crude extract, and 50 mg/kg 914/F004. Vehicle or treatments were given daily by oral route in gum acacia for 30 days. After completion of 30 days the rats were euthanized and there bones (femur, tibia, L1-L4 vertebra) were collected.
Bone Mineral Density of Femur (Global, head, neck), tibia (global, head, tibio-fibular separation point) and lumber vertebra (LV1, LV2, LV3, LV4) was determined by DEXA.
Female Sprague Dawley rats at weaning (˜21 d old) were divided into two groups consisting of 10 rats per group. Control rats were treated with gum acacia (vehicle) and the other group was treated with K058 at 5 mg/kg body weight. All the control and treated rats were given K058 or vehicle daily by oral route in gum acacia for 30 days. After completion of 30 days the rats were euthanized and their bones (femur, tibia, L1-L4 vertebra) were collected.
Bone mineral density of femur (global, head, neck), tibia (global, head, tibio-fibular separation point) and lumber vertebra (LV1, LV2, LV3, LV4) was determined by DEXA.

O=C1c2c(cc(O)c([C@@H]3OC(CO)[C@@H](O)[C@H](O)C3O)c2O)O[C@@H](c2ccc(O)c(O)c2)[C@@H]1O (stereo partly drawn) [K058, (2S,3S)-(+)-3′,4′,5,7-tetrahydroxydihydroflavonol-6-C-β-D-glucopyranoside]
mRNA levels of OPG (Osteoprotegrin) [1]: increased | mRNA levels of Alkaline phosphatase (ALP) ([1]; 0 to 48 h): increased | mRNA levels of bone morphogenic protein-2 (BMP-2) ([1]; 0 to 48 h): increased | mRNA levels of collagen I (COL-1) ([1]; 0 to 48 h): increased | mRNA levels of core binding factor-1 (Cbfa-1) ([1]; 0 to 48 h): increased | mRNA levels of osteocalcin (OCN) ([1]; 0 to 48 h): increased | ALP activity of BMCs (osteoblast differentiation) [2]: significantly more | mineralization of BMCs (alizarin red-S) [2]: significantly more | BMD shaft region of femur [3]: significantly more
